Reference: BindingDB's records for doi:10.1021/jm00213a022 (Sichuan University, 2021)
Peptide text beside a SMILES is read from it. * marks the point of attachment. Cbz = O=C(OCc1ccccc1)*

Legend:
[1] = molecular target: 72 kDa type IV collagenase (Homo sapiens, UniProt P08253); assay: Inhibition of MMP-2 (unknown origin)
[2] = molecular target: Matrix metalloproteinase-9 (Homo sapiens, UniProt P14780); assay: Inhibition of MMP-9 (unknown origin)
[3] = molecular target: T1, Proteasome subunit beta type-1 (Homo sapiens, UniProt P20618); assay: Inhibition of beta 1 proteasome (unknown origin)
T1 sequence (P20618 whole entry): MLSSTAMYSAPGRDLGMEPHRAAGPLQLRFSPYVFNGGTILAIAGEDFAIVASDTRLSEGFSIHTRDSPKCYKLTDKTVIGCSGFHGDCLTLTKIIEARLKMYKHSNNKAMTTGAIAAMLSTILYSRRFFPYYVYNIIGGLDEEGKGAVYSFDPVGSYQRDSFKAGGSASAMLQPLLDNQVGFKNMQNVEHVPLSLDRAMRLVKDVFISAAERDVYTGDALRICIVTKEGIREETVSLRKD

[4] = molecular target: T2, Proteasome subunit beta type-7 (Homo sapiens, UniProt Q99436); assay: Inhibition of beta2 proteasome (unknown origin)
T2 sequence (Q99436 whole entry): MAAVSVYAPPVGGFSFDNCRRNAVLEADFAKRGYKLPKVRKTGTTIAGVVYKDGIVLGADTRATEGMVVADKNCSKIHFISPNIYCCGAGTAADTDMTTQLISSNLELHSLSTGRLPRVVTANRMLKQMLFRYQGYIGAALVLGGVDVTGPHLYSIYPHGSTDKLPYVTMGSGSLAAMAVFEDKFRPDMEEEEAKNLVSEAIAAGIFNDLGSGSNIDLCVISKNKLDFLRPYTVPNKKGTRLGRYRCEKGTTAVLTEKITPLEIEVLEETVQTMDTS

[5] = molecular target: T3, Proteasome subunit beta type-5 (Homo sapiens, UniProt P28074); assay: Inhibition of beta5 proteasome (unknown origin)
T3 sequence (P28074 whole entry): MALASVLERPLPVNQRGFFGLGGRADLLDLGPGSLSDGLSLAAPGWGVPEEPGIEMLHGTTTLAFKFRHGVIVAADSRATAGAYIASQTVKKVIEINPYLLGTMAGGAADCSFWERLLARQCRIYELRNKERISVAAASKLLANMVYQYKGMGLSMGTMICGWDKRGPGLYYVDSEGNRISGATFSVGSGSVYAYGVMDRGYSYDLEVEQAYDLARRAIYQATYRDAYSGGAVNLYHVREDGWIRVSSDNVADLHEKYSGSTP

[6] = molecular target: ATP-dependent Clp protease proteolytic subunit, mitochondrial (Homo sapiens, UniProt Q16740); assay: Agonist activity at human recombinant CLpP (57 to 277 amino acids) expressed in Escherichia coli using fluorogenic peptide AC-WLA-AMC as substrate incubated for 10 mins by fluorescence based assay
Procathepsin L [7] = molecular target: T4, Procathepsin L (Homo sapiens, UniProt P07711); assay: Binding affinity to Cathepsin L (unknown origin) assessed as inhibition constant
Cathepsin K = molecular target: T5, Cathepsin K (Homo sapiens, UniProt P43235); assay: Inhibition of human cathepsin K
T5 sequence (P43235 whole entry): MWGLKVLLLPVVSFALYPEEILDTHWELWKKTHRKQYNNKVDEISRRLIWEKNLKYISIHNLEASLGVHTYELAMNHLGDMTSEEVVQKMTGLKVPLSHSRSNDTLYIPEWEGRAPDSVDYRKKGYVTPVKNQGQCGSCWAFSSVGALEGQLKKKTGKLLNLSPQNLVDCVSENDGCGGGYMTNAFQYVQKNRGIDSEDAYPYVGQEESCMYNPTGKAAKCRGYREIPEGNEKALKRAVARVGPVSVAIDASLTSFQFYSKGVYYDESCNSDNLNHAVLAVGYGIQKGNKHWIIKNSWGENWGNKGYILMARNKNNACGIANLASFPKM

Procathepsin L [8] = molecular target: T4, Procathepsin L; assay: Inhibition of human cathepsin L

Chain of 72 kDa type IV collagenase (P08253 whole entry): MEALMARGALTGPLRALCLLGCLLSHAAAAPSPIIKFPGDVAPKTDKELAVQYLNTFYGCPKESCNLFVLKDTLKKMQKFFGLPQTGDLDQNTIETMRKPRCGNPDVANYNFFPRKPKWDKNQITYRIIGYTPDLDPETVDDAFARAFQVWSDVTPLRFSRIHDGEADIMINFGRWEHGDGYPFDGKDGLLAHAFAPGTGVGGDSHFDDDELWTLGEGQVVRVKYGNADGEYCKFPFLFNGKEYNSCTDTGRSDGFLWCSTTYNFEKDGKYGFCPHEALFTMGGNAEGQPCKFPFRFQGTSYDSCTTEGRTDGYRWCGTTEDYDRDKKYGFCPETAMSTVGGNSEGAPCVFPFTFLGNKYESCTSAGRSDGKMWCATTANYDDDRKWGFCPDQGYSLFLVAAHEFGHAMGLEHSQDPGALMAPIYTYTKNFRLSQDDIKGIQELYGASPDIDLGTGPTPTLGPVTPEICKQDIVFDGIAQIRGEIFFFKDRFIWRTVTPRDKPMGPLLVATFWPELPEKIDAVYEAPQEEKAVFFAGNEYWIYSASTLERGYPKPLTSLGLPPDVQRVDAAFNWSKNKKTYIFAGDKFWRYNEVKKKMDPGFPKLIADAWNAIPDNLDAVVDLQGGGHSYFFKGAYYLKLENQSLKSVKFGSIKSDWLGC
Chain of Matrix metalloproteinase-9 (P14780 whole entry): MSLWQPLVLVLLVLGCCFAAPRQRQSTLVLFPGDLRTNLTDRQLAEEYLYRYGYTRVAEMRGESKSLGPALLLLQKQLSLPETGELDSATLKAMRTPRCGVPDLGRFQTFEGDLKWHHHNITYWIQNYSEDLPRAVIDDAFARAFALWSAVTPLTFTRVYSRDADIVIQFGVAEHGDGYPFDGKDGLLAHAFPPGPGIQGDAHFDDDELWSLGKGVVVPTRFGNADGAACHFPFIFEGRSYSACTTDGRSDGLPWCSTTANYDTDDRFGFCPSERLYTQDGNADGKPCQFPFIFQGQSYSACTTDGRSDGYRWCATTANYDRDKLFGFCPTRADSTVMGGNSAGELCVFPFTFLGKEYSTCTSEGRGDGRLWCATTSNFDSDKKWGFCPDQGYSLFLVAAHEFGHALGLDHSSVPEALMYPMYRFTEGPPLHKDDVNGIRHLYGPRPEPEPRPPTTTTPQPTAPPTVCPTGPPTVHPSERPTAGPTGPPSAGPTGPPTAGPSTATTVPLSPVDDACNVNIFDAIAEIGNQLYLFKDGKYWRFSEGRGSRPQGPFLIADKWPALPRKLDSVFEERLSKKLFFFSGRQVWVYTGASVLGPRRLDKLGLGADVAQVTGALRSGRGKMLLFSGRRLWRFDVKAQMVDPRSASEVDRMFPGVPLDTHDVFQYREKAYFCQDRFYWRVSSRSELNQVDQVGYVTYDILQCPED
Chain of ATP-dependent Clp protease proteolytic subunit, mitochondrial (Q16740 whole entry, the tested form may be a part): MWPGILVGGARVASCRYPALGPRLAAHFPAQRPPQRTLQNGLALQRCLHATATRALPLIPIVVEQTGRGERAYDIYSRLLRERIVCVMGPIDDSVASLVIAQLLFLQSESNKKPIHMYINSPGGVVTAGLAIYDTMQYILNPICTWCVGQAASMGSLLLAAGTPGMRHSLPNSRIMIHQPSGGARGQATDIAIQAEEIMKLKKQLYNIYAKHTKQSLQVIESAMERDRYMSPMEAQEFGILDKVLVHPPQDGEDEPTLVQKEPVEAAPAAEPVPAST
T4 sequence (P07711 whole entry): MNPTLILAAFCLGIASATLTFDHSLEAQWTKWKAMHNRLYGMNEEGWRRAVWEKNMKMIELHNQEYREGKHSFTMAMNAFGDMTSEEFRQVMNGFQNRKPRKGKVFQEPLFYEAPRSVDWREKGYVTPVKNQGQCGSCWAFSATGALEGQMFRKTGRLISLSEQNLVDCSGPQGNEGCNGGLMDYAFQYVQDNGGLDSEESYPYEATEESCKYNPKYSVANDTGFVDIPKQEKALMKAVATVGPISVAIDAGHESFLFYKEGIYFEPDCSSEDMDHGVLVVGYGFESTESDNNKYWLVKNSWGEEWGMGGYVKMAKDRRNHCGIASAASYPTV

With `COc1ccc(S(=O)(=O)N(Cc2cccnc2)[C@@H](CCF)C(=O)NO)cc1` as the compound, how does the IC50 [1] read?
The IC50 was 33 nM.

And the IC50 [2]?
Its IC50 is 3 nM.

Which results are given for `O=C1NC2([C@@H](O)[C@@H]3C=CCCC3)C(=O)O[C@H]2[C@H]1CCCl` (some centres not stated)?
IC50 [3]: 33 nM; IC50 [4]: 8 nM; IC50 [5]: 2.6 nM

With `CC(C)[C@H](O)C12NC(=O)[C@H](C)[C@@H]1OC2=O` (some centres not stated) as the compound, how does the IC50 [5] read?
Its IC50 is 47 nM.

For `C#Cc1cccc(CN2CCC3=C(C2)C(=O)N(Cc2ccc(C)cc2)C2=NCCN23)c1`, which EC50 [6] is on record?
The EC50 was 800 nM.

For `N#Cc1cccc(CN2CCC3=C(C2)C(=O)N(Cc2ccc(C(F)(F)F)cc2)C2=NCCN23)c1`, which EC50 [6] is on record?
The EC50 was 120 nM.

With `N#Cc1cccc(CN2CCC3=C(C2)C(=O)N(Cc2ccc(Cl)cc2)C2=NCCN23)c1` as the compound, how does the EC50 [6] read?
The EC50 was 120 nM.

With `Cn1c2c(c(=O)n(Cc3ccc(Cl)cc3)c1=O)CN(Cc1cccc(C#N)c1)CC2` as the compound, how does the EC50 [6] read?
The EC50 was 135 nM.

Which EC50 [6] does the source give for `Cc1cccc(CN2CCc3c(c(=O)n(Cc4ccc(C(F)(F)F)cc4)c(=O)n3CCCN)C2)c1` here?
The EC50 was 120 nM.

`COc1ccc(-c2ccc(S(=O)(=O)N(OC(C)C)[C@H](CCC3C(=O)c4ccccc4C3=O)C(=O)NO)cc2)cc1` was tested. Which IC50 [1] did it give?
The IC50 was 0.67 nM.

And the IC50 [2]?
Its IC50 is 0.43 nM.

`CCc1ccc(C#Cc2ccc(S(=O)(=O)N[C@H](C(=O)O)C(C)C)s2)cc1` was tested. Which IC50 [1] did it give?
Its IC50 is 4.8 nM.

And the IC50 [2]?
The IC50 was 4.4 nM.

Which results are given for `CCN([C@@H](C(=O)O)C(C)C)S(=O)(=O)c1ccc(-c2nc(-c3ccc(C)s3)no2)cc1`?
IC50 [1]: 3.7 nM; IC50 [2]: 36 nM

For `CC(C)C[C@H](NC(=O)OC(C)(C)C)C(=O)N1C[C@H]1C(=O)N1[C@H](C(=O)OCc2ccccc2)[C@@H]1C(=O)OCc1ccccc1`, which Ki (Procathepsin L [7]) is on record?
The Ki was 13 nM.

With `CC(C)C[C@H](NC(=O)CNC(=O)c1cc(Cl)ccc1Cl)B(O)O` as the compound, how does the IC50 [4] read?
Its IC50 is 3500 nM.

`O=C(c1ccccc1)c1ccc(S(=O)(=O)CC(CCCc2ccccc2)C(=O)NO)cc1` (configuration not stated) [2-(4-Benzoyl-benzenesulfonylmethyl)-5-phenyl-pentanoic acid hydroxyamide] was tested. Which IC50 [1] did it give?
Its IC50 is 4 nM.

And the IC50 [2]?
Its IC50 is 5 nM.

For `CC(C)N1CCN(C2(c3ccc(Oc4ccc(Br)cc4)cc3)C(=O)NC(=O)NC2=O)CC1` [5-[4-(4-Bromo-phenoxy)-phenyl]-5-(4-isopropyl-piperazin-1-yl)-pyrimidine-2,4,6-trione], which IC50 [1] is on record?
The IC50 was 26 nM.

And the IC50 [2]?
The IC50 was 1 nM.

Which IC50 [5] does the source give for `CC(C)C[C@H](NC(=O)[C@@H](NC(=O)c1cccc(-c2ccccc2)n1)[C@@H](C)O)B(O)O` [(R)-1-((2S,3R)-3-hydroxy-2-(6-phenylpicolinamido)butanamido)-3-methylbutylboronic acid] here?
Its IC50 is 1.5 nM.

`N#CN1CC(CNC(=O)C2CCCCC2)C1` [Cyclohexanecarboxylic acid (1-cyano-azetidin-3-ylmethyl)-amide] was tested. Which IC50 (Cathepsin K) did it give?
The IC50 was 5 nM.

What about the IC50 (Procathepsin L [8]) of the same compound?
The IC50 was 6 nM.

`CC(C)C[C@@H](C=O)NC(=O)[C@H](CC(C)C)NC(=O)[C@H](CC(C)C)NC(=O)OCc1ccccc1` [{1-[(S)-(S)-1-((S)-1-Formyl-3-methyl-butylcarbamoyl)-3-methyl-butylcarbamoyl]-3-methyl-butyl}-carbamic acid benzyl ester] (Cbz-Leu-Leu-Leu-aldehyde) was tested. Which IC50 [4] did it give?
The IC50 was 1080 nM.
